Measured values: US9284333B2, “Fused pyrroledicarboxamides and their use as pharmaceuticals” (SANOFI, priority 2012, dated 2016)

Biological target: Human TASK-1 channels (Homo sapiens (Human), UniProt O14649)
Test: Determination of the activity on the TASK-1 channel in Xenopus oocytes (two-microelectrode voltage clamp)
Type: cell-based
Conditions: for IC50: human TASK-1 expressed in Xenopus oocytes, room temperature, read-out: IC50 value for TASK-1 inhibition; for inhibition at 5 µM: compound concentration 5 μM
How it was run: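 Xenopus oocytes were injected with human TASK-1 cRNA and recorded two days later by two-microelectrode voltage clamp, holding at −90 mV with 500 ms steps to 40 mV. Superfusion used ND96, pH 7.4, at room temperature, with rising compound concentrations; percentage inhibition of control current was fitted to a dose-response curve for IC50.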

Sequence of Human TASK-1 channels (O14649 whole entry): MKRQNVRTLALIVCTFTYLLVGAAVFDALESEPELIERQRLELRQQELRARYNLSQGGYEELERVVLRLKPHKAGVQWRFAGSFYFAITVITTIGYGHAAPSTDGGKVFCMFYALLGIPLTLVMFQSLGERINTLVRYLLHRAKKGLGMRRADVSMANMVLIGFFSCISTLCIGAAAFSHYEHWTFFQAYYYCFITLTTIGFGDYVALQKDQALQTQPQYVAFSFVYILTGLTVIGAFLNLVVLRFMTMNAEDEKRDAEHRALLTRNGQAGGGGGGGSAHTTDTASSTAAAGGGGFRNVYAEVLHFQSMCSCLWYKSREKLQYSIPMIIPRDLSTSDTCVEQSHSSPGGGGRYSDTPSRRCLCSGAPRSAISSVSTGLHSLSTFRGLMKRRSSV

IC50 [nM]	inhibition at 5 µM [%]	SMILES
420		CC[C@@H](NC(=O)c1cc(C(=O)N2CCCC2C(C)n2cccn2)n2c1COCC2)c1ccccc1 (stereo partly drawn) [16fw, 6-[2-(1-Pyrazol-1-yl-ethyl)-pyrrolidine-1-carbonyl]-3,4-dihydro-1H-pyrrolo[2,1-c][1,4]oxazine-8-carboxylic acid ((R)-1-phenyl-propyl)-amide]
2200		CC[C@@H](NC(=O)c1cc(C(=O)NCCOC)n2c1COCC2)c1ccccc1 [16gh, 3,4-Dihydro-1H-pyrrolo[2,1-c][1,4]oxazine-6,8-dicarboxylic acid 6-[(2-methoxy-ethyl)-amide] 8-[((R)-1-phenyl-propyl)-amide]]
64		CC[C@@H](NC(=O)c1cc(C(=O)N2CCC[C@@H]2C)n2c1COCC2)c1ccccc1Cl [16q, 6-((S)-2-Methyl-pyrrolidine-1-carbonyl)-3,4-dihydro-1H-pyrrolo[2,1-c][1,4]oxazine-8-carboxylic acid [(R)-1-(2-chloro-phenyl)-propyl]-amide]
	77	CC(C)[C@@H](NC(=O)c1cc(C(=O)N2CCC[C@@H]2C)c2n1CCOC2)c1ccc(C#N)nc1 [16nm, 8-((S)-2-Methyl-pyrrolidine-1-carbonyl)-3,4-dihydro-1H-pyrrolo[2,1-c][1,4]oxazine-6-carboxylic acid [(R)-1-(6-cyano-pyridin-3-yl)-2-methyl-propyl]-amide]
620		CC[C@@H](NC(=O)c1cc(C(=O)NCC(=O)OC(C)C)n2c1COCC2)c1ccccc1 [16iw, {[8-((R)-1-Phenyl-propylcarbamoyl)-3,4-dihydro-1H-pyrrolo[2,1-c][1,4]oxazine-6-carbonyl]-amino}-acetic acid isopropyl ester]
140		COC(=O)[C@H]1CCCN1C(=O)c1cc(C(=O)N[C@@H](c2ccc(F)cc2)C(C)C)n2c1COCC2 [16ln, (R)-1-{6-[(R)-1-(4-Fluoro-phenyl)-2-methyl-propylcarbamoyl]-3,4-dihydro-1H-pyrrolo[2,1-c][1,4]oxazine-8-carbonyl}-pyrrolidine-2-carboxylic acid methyl ester]
75		CC[C@@H](NC(=O)c1cc(C(=O)N(C)Cc2ccc(F)cc2)n2c1CCCC2)c1ccccc1 [16mu, 5,6,7,8-Tetrahydro-indolizine-1,3-dicarboxylic acid 3-[(4-fluoro-benzyl)-methyl-amide] 1-[((R)-1-phenyl-propyl)-amide]]
140		CC[C@@H](NC(=O)c1cc(C(=O)N2CCC[C@@H]2C)n2c1COCC2)c1c(F)cc(C#N)cc1F [16ba, 6-((S)-2-Methyl-pyrrolidine-1-carbonyl)-3,4-dihydro-1H-pyrrolo[2,1-c][1,4]oxazine-8-carboxylic acid [(R)-1-(4-cyano-2,6-difluoro-phenyl)-propyl]-amide]
160		C[C@@H](NC(=O)c1cc(C(=O)N2CCC[C@@H]2C(F)(F)F)c2n1CCOC2)c1ccc(F)cc1 [16dk, 8-((R)-2-Trifluoromethyl-pyrrolidine-1-carbonyl)-3,4-dihydro-1H-pyrrolo[2,1-c][1,4]oxazine-6-carboxylic acid [(R)-1-(4-fluoro-phenyl)-ethyl]-amide]
900		CC[C@@H](NC(=O)c1cc(C(=O)NCc2cnccn2)n2c1C(C)OCC2)c1ccccc1 (stereo partly drawn) [16li, 1-Methyl-3,4-dihydro-1H-pyrrolo[2,1-c][1,4]oxazine-6,8-dicarboxylic acid 8-[((R)-1-phenyl-propyl)-amide] 6-[(pyrazin-2-ylmethyl)-amide]]
15		CC[C@@H](NC(=O)c1cc(C(=O)N2CCC[C@@H]2C)n2c1COCC2)c1ccc(F)c(Cl)c1 [16cg, 6-((S)-2-Methyl-pyrrolidine-1-carbonyl)-3,4-dihydro-1H-pyrrolo[2,1-c][1,4]oxazine-8-carboxylic acid [(R)-1-(3-chloro-4-fluoro-phenyl)-propyl]-amide]
110		CC[C@@H](NC(=O)c1cc(C(=O)N2CCC[C@@H]2C)n2c1C(C)OCC2)c1ccccc1 (stereo partly drawn) [16lf, 1-Methyl-6-((S)-2-methyl-pyrrolidine-1-carbonyl)-3,4-dihydro-1H-pyrrolo[2,1-c][1,4]oxazine-8-carboxylic acid ((R)-1-phenyl-propyl)-amide]
4900		CC[C@@H](NC(=O)c1cc(C(=O)N[C@H](CC)c2cccc(C(=O)O)c2)n2c1COCC2)c1ccccc1 [16rm, 3-((R)-1-{[8-((R)-1-Phenyl-propylcarbamoyl)-3,4-dihydro-1H-pyrrolo[2,1-c][1,4]oxazine-6-carbonyl]-amino}-propyl)-benzoic acid]
460		CC[C@@H](NC(=O)c1cc(C(=O)NC(C)c2ncccn2)c2n1CCOC2)c1ccccc1 (mixture of isomers) [16ka, 3,4-Dihydro-1H-pyrrolo[2,1-c][1,4]oxazine-6,8-dicarboxylic acid 6-[((R)-1-phenyl-propyl)-amide] 8-[(1-pyrimidin-2-yl-ethyl)-amide]]
170		CC[C@@H](NC(=O)c1cc(C(=O)NC(C)c2cnccn2)n2c1COCC2)c1ccccc1 (stereo partly drawn) [16hl, 3,4-Dihydro-1H-pyrrolo[2,1-c][1,4]oxazine-6,8-dicarboxylic acid 8-[((R)-1-phenyl-propyl)-amide] 6-[(1-pyrazin-2-yl-ethyl)-amide]]
	67	CC[C@@H](NC(=O)c1cc(C(=O)N2CCC[C@@H]2c2ccc(C(F)(F)F)nc2)n2c1COCC2)c1ccccc1 [16ga, 6-[(R)-2-(6-Trifluoromethyl-pyridin-3-yl)-pyrrolidine-1-carbonyl]-3,4-dihydro-1H-pyrrolo[2,1-c][1,4]oxazine-8-carboxylic acid ((R)-1-phenyl-propyl)-amide]
280		CC[C@@H](NC(=O)c1cc(C(=O)N2CCC[C@@H]2C)n2c1COCC2)c1ccc(Br)s1 [16bg, 6-((S)-2-methyl-pyrrolidine-1-carbonyl)-3,4-dihydro-1H-pyrrolo[2,1-c][1,4]oxazine-8-carboxylic acid [(R)-1-(5-bromo-thiophen-2-yl)-propyl]-amide]

The remaining lines, values behind:

SMILES	IC50 [nM]	inhibition at 5 µM [%]
CC[C@@H](NC(=O)c1cc(C(=O)N2CCC[C@@H]2COC(C)=O)n2c1COCC2)c1ccccc1 [16rg, acetic acid (R)-1-[8-((R)-1-phenyl-propylcarbamoyl)-3,4-dihydro-1H-pyrrolo[2,1-c][1,4]oxazine-6-carbonyl]-pyrrolidin-2-ylmethyl ester]	110	
CC[C@@H](NC(=O)c1cc(C(=O)N2CCC[C@@H]2C)n2c1CCCC2)c1ccc(C(F)(F)F)nc1 [16lw, 3-((S)-2-Methyl-pyrrolidine-1-carbonyl)-5,6,7,8-tetrahydro-indolizine-1-carboxylic acid [(R)-1-(6-trifluoromethyl-pyridin-3-yl)-propyl]-amide]	600	
CC[C@@H](NC(=O)c1cc(C(=O)NCc2cc(OC)cc(OC)c2)n2c1COCC2)c1ccccc1 [16gz, 3,4-Dihydro-1H-pyrrolo[2,1-c][1,4]oxazine-6,8-dicarboxylic acid 6-(3,5-dimethoxy-benzylamide) 8-[((R)-1-phenyl-propyl)-amide]]	2200	
CC[C@@H](NC(=O)c1cc(C(=O)N2CCC[C@@H]2c2cnccn2)n2c1COCC2)c1ccccc1 [16fp, 6-((R)-2-Pyrazin-2-yl-pyrrolidine-1-carbonyl)-3,4-dihydro-1H-pyrrolo[2,1-c][1,4]oxazine-8-carboxylic acid ((R)-1-phenyl-propyl)-amide]	1900	
CC[C@@H](NC(=O)c1cc(C(=O)N2CCC[C@@H]2C(=O)OC(C)C)n2c1COCC2)c1ccccc1 [16n]	140	
CC[C@@H](NC(=O)c1cc(C(=O)NCc2ccc(OC)nc2)n2c1COCC2)c1ccccc1 [16jg, 3,4-Dihydro-1H-pyrrolo[2,1-c][1,4]oxazine-6,8-dicarboxylic acid 6-[(6-methoxy-pyridin-3-ylmethyl)-amide] 8-[((R)-1-phenyl-propyl)-amide]]		80
CC[C@@H](NC(=O)c1cc(C(=O)N2CCC2C)n2c1COCC2)c1ccc(C(F)(F)F)nc1 (stereo partly drawn) [16pe, 6-(2-Methyl-azetidine-1-carbonyl)-3,4-dihydro-1H-pyrrolo[2,1-c][1,4]oxazine-8-carboxylic acid [(R)-1-(6-trifluoromethyl-pyridin-3-yl)-propyl]-amide]		69
CC(NC(=O)c1cc(C(=O)N[C@@H](c2ccc(F)cc2)C(C)C)n2c1COCC2)c1cnccn1 (single isomer, unassigned) [16lp]	550	
CC[C@@H](NC(=O)c1cc(C(=O)N2CCC[C@@H]2C)n2c1CCCC2)c1ccc(C#N)cc1 [16lx, 3-((S)-2-Methyl-pyrrolidine-1-carbonyl)-5,6,7,8-tetrahydro-indolizine-1-carboxylic acid [(R)-1-(4-cyano-phenyl)-propyl]-amide]	200	
CC[C@@H](NC(=O)c1cc(C(=O)NCc2cnccn2)c2n1CCOC2)c1ccc(F)cc1Cl [16ko, 3,4-Dihydro-1H-pyrrolo[2,1-c][1,4]oxazine-6,8-dicarboxylic acid 6-{[(R)-1-(2-chloro-4-fluoro-phenyl)-propyl]-amide} 8-[(pyrazin-2-ylmethyl)-amide]]	310	
CC[C@@H](NC(=O)c1cc(C(=O)N[C@H](CC)c2ccc(C(F)(F)F)nc2)n2c1COCC2)c1ccccc1 [16id, 3,4-Dihydro-1H-pyrrolo[2,1-c][1,4]oxazine-6,8-dicarboxylic acid 8-[((R)-1-phenyl-propyl)-amide] 6-{[(R)-1-(6-trifluoromethyl-pyridin-3-yl)-propyl]-amide}]	530	
CC(NC(=O)c1cc(C(=O)N[C@H](C)c2ccc(F)cc2)n2c1CCCC2)c1ncccn1 (stereo partly drawn) [16lu, 5,6,7,8-Tetrahydro-indolizine-1,3-dicarboxylic acid 3-{[(R)-1-(4-fluoro-phenyl)-ethyl]-amide} 1-[(1-pyrimidin-2-yl-ethyl)-amide]]	450	
CC[C@@H](NC(=O)c1cc(C(=O)NC2CCCc3nccnc32)n2c1COCC2)c1ccccc1 (stereo partly drawn) [16io, 3,4-Dihydro-1H-pyrrolo[2,1-c][1,4]oxazine-6,8-dicarboxylic acid 8-[((R)-1-phenyl-propyl)-amide] 6-[(5,6,7,8-tetrahydro-quinoxalin-5-yl)-amide]]	940	
